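Following 48 hours of exposure in 96-well plates, responses at five concentrations were used to interpolate endpoints linearly. Here, GI50 denotes the concentration required for 50% inhibition of growth.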 The source made the active and inactive calls. Cut-off read from the data, not from the text of the source: active = GI50 up to about 1.1 µM and inactive = higher.
How the values were obtained:
Experiment in all cases: DTP human tumour cell line panel, 48 h
786-0 = system: 786-0
A498 = system: A498
A549 = system: A549
ACHN = system: ACHN
CAKI-1 = system: CAKI-1
COLO 205 = system: COLO 205
DLD-1 = system: DLD-1
DMS-114 = system: DMS-114
DMS-273 = system: DMS-273
EKVX = system: EKVX
HCT-116 = system: HCT-116
HOP-18 = system: HOP-18
HOP-62 = system: HOP-62
HOP-92 = system: HOP-92
HT-29 = system: HT-29
IGROV-1 = system: IGROV-1
KM-20L2 = system: KM-20L2
KM12 = system: KM12
LOX IMVI = system: LOX IMVI
LXFL 529 = system: LXFL 529
M14 = system: M14
M19-MEL = system: M19-MEL
MOLT-4 = system: MOLT-4
Malme-3M = system: Malme-3M
NCI-H226 = system: NCI-H226
NCI-H23 = system: NCI-H23
NCI-H460 = system: NCI-H460
NCI-H522 = system: NCI-H522
OVCAR-3 = system: OVCAR-3
OVCAR-4 = system: OVCAR-4
OVCAR-5 = system: OVCAR-5
OVCAR-8 = system: OVCAR-8
RPMI-8226 = system: RPMI-8226
RXF 393 = system: RXF 393
SF-268 = system: SF-268
SF-295 = system: SF-295
SF-539 = system: SF-539
SK-MEL-28 = system: SK-MEL-28
SK-MEL-2 = system: SK-MEL-2
SK-MEL-5 = system: SK-MEL-5
SK-OV-3 = system: SK-OV-3
SN12C = system: SN12C
SNB-19 = system: SNB-19
SNB-75 = system: SNB-75
SNB-78 = system: SNB-78
SR = system: SR
SW-620 = system: SW-620
TK-10 = system: TK-10
U-251 = system: U-251
UACC-257 = system: UACC-257
UACC-62 = system: UACC-62
UO-31 = system: UO-31
XF498 = system: XF498

Measured: GI50

C=C1CC2CC(O)CC(C1)C2 (stereo not drawn)
inactive: 786-0 > 100 µM | A498 > 100 µM | A549 > 100 µM | ACHN > 100 µM | CAKI-1 > 100 µM | COLO 205 > 100 µM | DLD-1 > 100 µM | DMS-114 > 100 µM | DMS-273 > 100 µM | EKVX > 100 µM | HCT-116 > 100 µM | HOP-18 > 100 µM | HOP-62 > 100 µM | HOP-92 > 100 µM | HT-29 > 100 µM | IGROV-1 > 100 µM | KM-20L2 > 100 µM | KM12 > 100 µM | LOX IMVI > 100 µM | LXFL 529 > 100 µM | M14 > 100 µM | M19-MEL > 100 µM | MOLT-4 78.2 µM | Malme-3M > 100 µM | NCI-H226 > 100 µM | NCI-H23 > 100 µM | NCI-H460 > 100 µM | NCI-H522 > 100 µM | OVCAR-3 > 100 µM | OVCAR-4 > 100 µM | OVCAR-5 > 100 µM | OVCAR-8 > 100 µM | RPMI-8226 32.4 µM | RXF 393 > 100 µM | SF-268 > 100 µM | SF-295 > 100 µM | SF-539 > 100 µM | SK-MEL-28 > 100 µM | SK-MEL-2 > 100 µM | SK-MEL-5 > 100 µM | SK-OV-3 > 100 µM | SN12C > 100 µM | SNB-19 > 100 µM | SNB-75 > 100 µM | SNB-78 > 100 µM | SR 93.5 µM | SW-620 > 100 µM | TK-10 > 100 µM | U-251 > 100 µM | UACC-257 > 100 µM | UACC-62 > 100 µM | UO-31 > 100 µM | XF498 > 100 µM
